Measured values as given in patent US10738072B1, “Nucleotide analogues” (Singular Genomics Systems, Inc., priority 2018, dated 2020).

Target: T1, modified thermophilic polymerase (Therminator 3, from New England BioLabs) (Thermococcus sp., UniProt Q56366, D141A/E143A/L408S/P410V/Y409A)
T1 construct: purchased New England BioLabs
Experiment: Incorporation of 3′-terminated nucleotides by a modified thermophilic polymerase
Format: biochemical, Thermococcus sp. 9 degrees N-7
Settings: pH 8.5, nucleotides at 200 nM, 4 mM Mg, 55° C.; polymerase pre-bound to primed DNA template
Excerpt: Another important property of a nucleotide with a reversible terminator (e.g., 3′ cleavable moiety as described herein) is the ability to be rapidly incorporated by a DNA polymerase. Naturally occurring DNA polymerases are typically not capable of incorporating nucleotides modified with reversible terminator (e.g., 3′ cleavable moiety as described herein) at the 3′ position on the ribose of the nucleotide. As known in the art, a number of thermophilic polymerases have been engineered to enable the incorporation of nucleotides modified with 3′ terminators. […] The reaction was carried out in a buffered solution at pH 8.5, with nucleotides at 200 nM concentration, 4 mM Mg, at a temperature of 55° C. The polymerase was pre-bound to the primed DNA template. All three terminated nucleotides are efficiently incorporated by the modified DNA polymerase. The polymerase can be further modified for desired properties such as incorporation rate and accuracy.

T1 sequence (Q56366 whole entry D141A/E143A/L408S/Y409A/P410V): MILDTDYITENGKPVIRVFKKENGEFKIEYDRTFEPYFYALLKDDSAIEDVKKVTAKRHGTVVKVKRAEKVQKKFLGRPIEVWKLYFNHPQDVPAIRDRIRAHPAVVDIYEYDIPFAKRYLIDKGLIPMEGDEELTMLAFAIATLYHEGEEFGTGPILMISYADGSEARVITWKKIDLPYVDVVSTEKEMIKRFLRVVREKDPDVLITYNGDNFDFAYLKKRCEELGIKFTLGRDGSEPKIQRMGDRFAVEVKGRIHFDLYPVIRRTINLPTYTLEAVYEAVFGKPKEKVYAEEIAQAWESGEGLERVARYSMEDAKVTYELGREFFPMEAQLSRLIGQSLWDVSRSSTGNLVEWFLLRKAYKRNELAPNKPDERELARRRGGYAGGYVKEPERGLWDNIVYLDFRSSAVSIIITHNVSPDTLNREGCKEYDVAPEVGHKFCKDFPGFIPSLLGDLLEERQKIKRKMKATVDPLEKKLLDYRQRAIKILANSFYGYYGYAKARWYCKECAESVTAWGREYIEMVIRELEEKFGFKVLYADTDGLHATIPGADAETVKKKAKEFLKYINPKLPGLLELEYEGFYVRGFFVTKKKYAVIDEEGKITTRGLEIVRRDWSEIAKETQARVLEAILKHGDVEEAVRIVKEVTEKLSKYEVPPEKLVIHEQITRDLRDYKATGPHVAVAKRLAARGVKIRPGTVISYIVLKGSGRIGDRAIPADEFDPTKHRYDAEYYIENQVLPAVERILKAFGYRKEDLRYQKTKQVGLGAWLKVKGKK

CSSCOC1CC(n2cc(C)c(=O)[nH]c2=O)OC1COP(=O)(O)OP(=O)(O)OP(=O)(O)O (stereo not shown) [RT #1, 3′O—CH2—S—S—CH3]
Incorporation half-time: 14 ± 3 s
